From patent US20070141203A1, “Beverages containing water-soluble vitamin E” (priority 2003, published 2007)

Key:
[1] = Turbidity of aqueous dispersions and solutions of vitamin E-containing components in demineralized water (Hach turbidimeter Model Ratio/XR); type: physicochemical; conditions: 150 +/- 5 ppm in demineralized water; for Turbidity (Initially doped water): initial; for Turbidity (6 wks after doping): six weeks at ambient temperature
Procedure: Preparation of aqueous dispersions and solutions of vitamin E-containing components.
(§1) Sample 1: Vitamin E oil (0.15 g) was added to 1000 g of demineralized water. The mixture was homogenized for approximately 60 minutes using a Gifford-Wood homogenizer, Model 1 L form Greerco Corporation. The sample was very cloudy. The turbidity of the sample was measured using a Hach turbidimeter Model Ratio/XR. The turbidity of the demineralized water was also measured prior to addition of the vitamin E. The sample was stored at ambient temperature for six weeks. […] The sample was shaken well and the turbidity measured.
(§2) Sample 2: Vitamin E acetate oil (0.25 g) from Sigma-Aldrich was added to 1681 g of demineralized water. […] The turbidity of the dispersion was measured and then again after storage for six weeks at ambient temperature.
(§3) Sample 3: Vitamin E succinate powder (0.27 g) from Sigma-Aldrich was added to 1792 g of demineralized water. The mixture was homogenized for approximately 60 minutes. […] The turbidity of the dispersion was measured and then again after storage for six weeks at ambient temperature.
(§4) This solution was stirred at ambient temperature using a magnetic stirrer for several minutes. […] The turbidity of the solution was measured and then measured again after storage at ambient temperature for six weeks.
(§5) Sample 6: To 1790 g of demineralized water was added 0.27 g of a mixture consisting of d,l-α-tocopheryl acetate, modified food starch, and silica. This product is commercially available from Roche Vitamins, Inc., under the name “Dry Vitamin E 15% CC”. The aqueous mixture was agitated for about thirty minutes using a magnetic stirrer. […] The turbidity of the solution was measured and then re-measured after storage for six weeks at ambient temperature.
(§6) Sample 7: To 1802 g of demineralized water was added 0.27 g of a mixture consisting of d-α-tocopheryl acetate, Polysorbate 60, and ethyl alcohol. This product is commercially available from ADM under the name “E 230 Clear®”. The mixture was agitated for about ten minutes using a magnetic stirrer. […] The turbidity of the solution was measured and then re-measured after storage for six weeks at ambient temperature.

[2] = Visual appearance / dissolution of vitamin E-containing components in demineralized water, on preparation and during storage; type: physicochemical; conditions: about 150 ppm in demineralized water; for Appearance / dissolution on preparation: after homogenizing or stirring; for Appearance during / after storage: six weeks at ambient temperature
Procedure: as §1, §2, §3, §4, §5, §6

Cc1c(C)c2c(c(C)c1O)CC[C@@](C)(CCC[C@H](C)CCC[C@H](C)CCCC(C)C)O2 [Sample 1, d-α-Tocopherol]
Turbidity (Initially doped water) [1]: 55 NTU
Turbidity (6 wks after doping) [1]: 68 NTU
Appearance / dissolution on preparation [2]: very cloudy
Appearance during / after storage [2]: an immiscible layer of oil formed on top of the water

CC(=O)Oc1c(C)c(C)c2c(c1C)CC[C@@](C)(CCC[C@H](C)CCC[C@H](C)CCCC(C)C)O2 [Sample 2, d-α-Tocopherol acetate]
Turbidity (Initially doped water) [1]: 52 NTU
Turbidity (6 wks after doping) [1]: 61 NTU
Appearance / dissolution on preparation [2]: some immiscible oil droplets remained on the surface of the water
Appearance during / after storage [2]: Immiscible oil droplets were still on the surface of the water

Cc1c(C)c2c(c(C)c1OC(=O)CCC(=O)O)CCC(C)(CCCC(C)CCCC(C)CCCC(C)C)O2 (stereo not drawn) [Sample 3, d,l-α-Tocopherol succinate]
Turbidity (Initially doped water) [1]: 8 NTU
Turbidity (6 wks after doping) [1]: 22 NTU
Appearance / dissolution on preparation [2]: A small amount of powder continued to float on the surface of the water
Appearance during / after storage [2]: A small amount of powder continued to reside on the surface of the water
